The test system of data set [1] is NCI-H1048 (small cell lung cancer). Briefly: PI3K viability assay, NCI-H1048 cells. In kind it is cell-based. The following applies: Homo sapiens. The method, then:
(§1) PI3K viability assays were carried out on the payloads and conjugates. HCT-116 (human colon carcinoma), NCI-H460 (human non-small cell lung carcinoma), and NCI-H1048 (small cell lung cancer) cells were treated with conjugates and payloads for 4 hours. After 4 hours, compounds were washed out and cells assayed for viability 72 hrs post wash out.

Data set [2] relates to NCI-H460 (human non-small cell lung carcinoma). Put plainly: PI3K viability assay, NCI-H460 cells. In kind it is cell-based. The method, then: as §1
Data set [3] has as its system HCT-116 (human colon carcinoma). Briefly: PI3K viability assay, HCT-116 cells. In kind it is cell-based. As to the method:
as §1

Data set [4] can be described thus: Stability of PARP inhibiting (olaparib) conjugates in plasma and tumor tissue, release of olaparib. In kind it is in vitro ADME. As to conditions: for Release of olaparib in plasma and tumor: plasma and tumor tissues, FIG. 1A-E. As to the method: Stabilities of conjugates comprising PARP inhibitor olaparib and HSP90 binding moieties were studied and the conversions of the conjugates to Olaparib were monitored.
In one study, concentrations of Compounds 4, 5, 6 and olaparib released from them in plasma and tumor tissue were monitored (FIG. 1A, FIG. 1B, and FIG. 1C). The linkers were cleaved to release olaparib, thus concentrations of olaparib increased over time. Half times of Compounds 4, 5, and 6 were calculated. […]

The test system of data set [5] is HCT-116, NCI-H460, and NCI-H1048 cells. Briefly: PI3K viability assays, summary over the three cell lines. The following applies: 4 hours treatment, viability 72 hrs post wash out. In kind it is cell-based, human. The method, then: as §1
Data set [6] is described as follows: Stability of PI3K inhibiting conjugates at 37° C. in plasma and tumor homogenates. An excerpt:
Stabilities of conjugates comprising PI3K inhibitors and HSP90 binding moieties were studied.

The test system of data set [7] is Caspase-9. Put plainly: PI3K Caspase-9 assay with HCT-116 cells. In kind it is cell-based, human. As to conditions: 4 hour treatment, assayed 24, 48, 72 hrs. As to the method: Caspase-9 is activated during apoptosis and is an indicator of apoptosis and cytokine processing. PI3K Caspase-9 assay was conducted with HCT-116 cells. HCT-116 cells were treated with conjugates and payloads for 4 hours. After 4 hours, compounds were washed out and cells were assayed for Caspase-9 24, 48, 72, and 144 hrs. Untreated cells were not viable at 144 hrs. Caspase-9 levels 24 hours, 48 hours, and 72 hours after 4 hour treatment with Compound 10, Compound 12, Compound 13, PF-0461502, Compound 11, T-1634, and BAY80-6946 were shown in FIG. 3.

Data set [8] in a line: In vivo tumor PK study, HCT116 colon cancer tumor line mouse model. As to conditions: single dose at 0 hours, FIG. 4. As to the method:
A tumor PK study was conducted with HSP90-binding conjugate Compound 12 in a HCT116 colon cancer tumor line mouse model. The payload on Compound 12 is the PI3K inhibitor PI-103. Both PI-103 and Compound 12 were given as a single dose at 0 hours to separate groups of mice and their concentrations in tumors were collected over time.

Data set [9] in a line: In vivo tumor PK study, MDA-MB-231 breast cancer tumor line mouse model. As to the method: A tumor PK study was conducted with HSP90-binding conjugate Compound 12 in a MDA-MB-231 breast cancer tumor line mouse model. The payload on Compound 12 is the PI3K inhibitor PI-103. Both PI-103 and Compound 12 were given as a single dose at 0 hours to separate groups of mice and their concentrations in tumors were collected over time.

Where [10] appears, read: NCI-H1048, 4 hours treatment, wash out, viability 72 hrs post wash out, Run 1, read-out: IC50 NCI-H1048 Run 1.
The mark [11] stands for this setting: NCI-H460, 4 hours treatment, wash out, viability 72 hrs post wash out, Run 1, read-out: IC50 NCI-H460 Run 1.
Where [12] appears, read: HCT-116, 4 hours treatment, wash out, viability 72 hrs post wash out, Run 1, read-out: IC50 HCT-116 Run 1.
Where [13] appears, read: plasma, Table 1, read-out: Plasma t1/2 (converted).
The mark [14] stands for this setting: tumor tissue, Table 1, read-out: Tumor t1/2 (converted).
Where [15] appears, read: plasma, Table 3, read-out: Plasma t1/2 (converted).
Setting [16] is: tumor tissue, Table 3, read-out: Tumor t1/2 (converted).
Where [17] appears, read: NCI-H1048, 4 hours treatment, wash out, viability 72 hrs post wash out, Run 2, read-out: IC50 NCI-H1048 Run 2.
The mark [18] stands for this setting: HCT-116, 4 hours treatment, wash out, viability 72 hrs post wash out, Run 2, read-out: IC50 HCT-116 Run 2.
[19] abbreviates: NCI-H460, 4 hours treatment, wash out, viability 72 hrs post wash out, Run 2, read-out: IC50 NCI-H460 Run 2.
Where [20] appears, read: NCI-H1048, read-out: IC50 NCI-H1048 Run 2.
Setting [21] is: NCI-H460, read-out: IC50 NCI-H460 Run 2.
The mark [22] stands for this setting: HCT-116, read-out: IC50 HCT-116 Run 2.

Read-outs that look alike come from different tables or passages of the source.

By IC50 is commonly meant the midpoint of a concentration-inhibition curve. Take `COc1c(OCCCN2CCOCC2)ccc2c1N=C(NC(=O)c1cnc(N)nc1)N1CCN=C21` [BAY80-6946, Copanlisib, reference compound]: the IC50 was 0.13 µM in [1] (setting [10]), 0.62 µM in data set [2] (setting [11]) and 3.42 µM in [3] (setting [12]).
For `CC(C)c1cc(-c2nnc(O)n2-c2ccc3c(ccn3CCC3CCN(CCC(C)(C)SSCCOC(=O)NCn4nc(Cc5ccc(F)c(C(=O)N6CCN(C(=O)C7CC7)CC6)c5)c5ccccc5c4=O)CC3)c2)c(O)cc1O` [Compound 4], the “Release of olaparib in plasma and tumor” value in data set [4] was “release olaparib in plasma and tumor”. Also, the half-life in [4] (setting [13]) is 4.5 h; in [4] (setting [14]), 0.64 h.
Regarding `CC(C)c1cc(-c2nnc(O)n2-c2ccc3c(ccn3CCC3CCN(CCC(C)(C)SSCCOC(=O)N(CCN(C)C)Cn4nc(Cc5ccc(F)c(C(=O)N6CCN(C(=O)C7CC7)CC6)c5)c5ccccc5c4=O)CC3)c2)c(O)cc1O` [Compound 5], the “Relative stability in plasma and tumor” value in data set [4] (plasma and tumor) was “more stable than Compound 4 and Compound 6 in both plasma and tumor”. The “Release of olaparib in plasma and tumor” value in data set [4] is “release olaparib in plasma and tumor”. The half-life was 35 h in data set [4] (setting [13]) and 4.5 h in data set [4] (setting [14]).
For the molecule `CC(C)c1cc(-c2nnc(O)n2-c2ccc3c(ccn3CCC3CCN(CCCSSCCOC(=O)N(CCN(C)C)Cn4nc(Cc5ccc(F)c(C(=O)N6CCN(C(=O)C7CC7)CC6)c5)c5ccccc5c4=O)CC3)c2)c(O)cc1O` [Compound 6], the “Release of olaparib in plasma and tumor” value in data set [4] was “release olaparib in plasma and tumor”. Besides, the figures for the half-life in data set [4] (setting [13]) and in data set [4] (setting [14]) were 4.8 h and 0.27 h, respectively.
With `CC(C)c1cc(-c2nnc(O)n2-c2ccc(CN3CCN(CCC(C)(C)SSCCOC(=O)N(CCN(C)C)Cn4nc(Cc5ccc(F)c(C(=O)N6CCN(C(=O)C7CC7)CC6)c5)c5ccccc5c4=O)CC3)cc2)c(O)cc1O` [Compound 7], in [4], the “Release of olaparib in plasma and tumor” value is “release olaparib in plasma and tumor”. For the same molecule, the half-life was 43 h in [4] (setting [15]) and 4 h in data set [4] (setting [16]).
For `CC(C)c1cc(-c2nnc(O)n2-c2ccc(CN3CCN(CCC(C)(C)SSc4ccc(COC(=O)N(CCN(C)C)Cn5nc(Cc6ccc(F)c(C(=O)N7CCN(C(=O)C8CC8)CC7)c6)c6ccccc6c5=O)cc4)CC3)cc2)c(O)cc1O` [Compound 8], the “Release of olaparib in plasma and tumor” value in data set [4] was “release olaparib in plasma and tumor”. Further, the results for the half-life in [4] (setting [15]) and in data set [4] (setting [16]) were 46 h and 24 h, respectively.
For the molecule `CC(C)c1cc(-c2nnc(O)n2-c2ccc3c(ccn3CCC3CCN(C(=O)Oc4cccc(-c5nc(N6CCOCC6)c6oc7ncccc7c6n5)c4)CC3)c2)c(O)cc1O` [Compound 10], the “Activity in viability assays relative to payload” value in [5] was “appeared to lose activity”. Besides, the “Stability in plasma versus tumor homogenates” value in data set [6] (37° C.) is reported as “less stable in plasma than in tumor homogenates”. For the same molecule, the “Cleavage of carbamate groups” value in [6] (plasma) is “cleaved in plasma by carboxylesterase”. Also, the Caspase-9 signal result in data set [7] is “Lack or decrease in signal”. Moreover, the IC50 was 40.4 µM in [1] (setting [10]), roughly 9160 µM in data set [1] (setting [17]), roughly 3220 µM in data set [2] (setting [11]) and roughly 15500 µM in data set [3] (setting [18]).
Consider `COc1ccc(-c2cc3c(C)nc(N)nc3n([C@H]3CC[C@H](OCCOC(=O)N4CCC(CCn5ccc6cc(-n7c(O)nnc7-c7cc(C(C)C)c(O)cc7O)ccc65)CC4)CC3)c2=O)cn1` [Compound 11], for which the “Cleavage of carbamate groups” value in data set [6] was “cleaved in plasma by carboxylesterase”. The “Stability in plasma versus tumor homogenates” value in data set [6] is on record as “less stable in plasma than in tumor homogenates”. In addition, the IC50 in data set [1] (setting [10]) is 1.77 µM; in data set [1] (setting [17]), 1.99 µM; in data set [2] (setting [11]) it was 3.64 µM; in data set [2] (setting [19]), 3.66 µM; in data set [3] (setting [12]), 10.2 µM; in data set [3] (setting [18]) it was 5.59 µM.
Consider `CC(C)c1cc(-c2nnc(O)n2-c2ccc(CN3CCN(C(=O)Oc4cccc(-c5nc(N6CCOCC6)c6oc7ncccc7c6n5)c4)CC3)cc2)c(O)cc1O` [Compound 12], for which, in [5], the “Activity in viability assays relative to payload” value is on record as “retained activity similar to PI-103 payload”. Besides, the Caspase-9 signal result in [7] was “appears to retain activity similar to payload (PI-103) and ligand (ganetespib)”. Moreover, the IC50 in data set [1] (setting [20]) came to 1.27 µM; in [2] (setting [21]), 1.95 µM; in [3] (setting [22]), 3.94 µM. Besides, the “Concentrations in tumors over time” value was “accumulation of the conjugate, retention of the conjugate and sustained release of the payload over time” in data set [8]; “accumulation of the conjugate, retention of the conjugate and sustained release of the payload over time” in data set [9] (single dose at 0 hours, MDA-MB-231 tumor, FIG. 5).
Take `CC(C)c1cc(-c2nnc(O)n2-c2ccc(CN3CCN(C(=O)NC(CSSCCNC(=O)Oc4cccc(-c5nc(N6CCOCC6)c6oc7ncccc7c6n5)c4)C(N)=O)CC3)cc2)c(O)cc1O` (stereo not drawn) [Compound 13]: the “Activity in viability assays relative to payload” value in data set [5] is listed as “retained activity similar to PI-103 payload”. Also, the Caspase-9 signal entry in data set [7] is given as “Lack or decrease in signal”. Also, the IC50 in data set [1] (setting [20]) came to 2.9 µM; in [2] (setting [21]) it was 8.2 µM; in data set [3] (setting [22]), 10.7 µM.
For the molecule `COc1ncc(-c2ccc3nccc(-c4ccnnc4)c3c2)cc1NS(=O)(=O)c1ccc(F)cc1F` [GSK-2126458, Omipalisib, reference compound], the 50% inhibitory concentration (IC50) came out at 0.21 µM in [1] (setting [10]), 0.19 µM in data set [2] (setting [11]) and 1.5 µM in data set [3] (setting [12]).
As to `COc1ccc(-c2cc3c(C)nc(N)nc3n([C@H]3CC[C@H](OCCO)CC3)c2=O)cn1` [PF-04691502, reference compound], the half-maximal inhibitory concentration (IC50) in [1] (setting [10]) turned out to be 3.36 µM; in data set [1] (setting [17]), 2.63 µM; in data set [2] (setting [11]), 8.98 µM; in [2] (setting [19]), 3.53 µM; in data set [3] (setting [12]) it was 45.4 µM; in data set [3] (setting [18]), 11.3 µM.
`Oc1cccc(-c2nc(N3CCOCC3)c3oc4ncccc4c3n2)c1` [PI-103, reference compound]: the IC50 in data set [1] (setting [10]) is 1.94 µM; in data set [1] (setting [17]), 2.5 µM; in data set [2] (setting [11]) it was 2.85 µM; in [2] (setting [19]), 4.34 µM; in [3] (setting [12]) it was roughly 16500 µM. For the same molecule, the “Concentrations in tumors over time” value in data set [8] is “detected at 1 hour and then fell below limit of detection”; in data set [9] (mouse, in vivo), “detected at 1 hour and then fell to a low level at 24 h”.

The values are drawn from patent publication US11241500B2, “HSP90-targeting conjugates and formulations thereof” (TARVEDA THERAPEUTICS, INC., priority 2016, dated 2022).
